Among the data in US8748430B2, “Pyrrolidin-3yl-methylamine quinoxaline derivatives” (Hoffmann-La Roche Inc, priority 2008, dated 2014) are Kb values, retold here.

In general, Kb refers to the affinity of an antagonist, worked out from how it opposes an agonist.

The assay has as its target T1, human orexin-2 (hOX2) receptor (Homo sapiens, UniProt O43614).
T1 construct: expressed in transfected cells
T1 sequence (O43614 1-444): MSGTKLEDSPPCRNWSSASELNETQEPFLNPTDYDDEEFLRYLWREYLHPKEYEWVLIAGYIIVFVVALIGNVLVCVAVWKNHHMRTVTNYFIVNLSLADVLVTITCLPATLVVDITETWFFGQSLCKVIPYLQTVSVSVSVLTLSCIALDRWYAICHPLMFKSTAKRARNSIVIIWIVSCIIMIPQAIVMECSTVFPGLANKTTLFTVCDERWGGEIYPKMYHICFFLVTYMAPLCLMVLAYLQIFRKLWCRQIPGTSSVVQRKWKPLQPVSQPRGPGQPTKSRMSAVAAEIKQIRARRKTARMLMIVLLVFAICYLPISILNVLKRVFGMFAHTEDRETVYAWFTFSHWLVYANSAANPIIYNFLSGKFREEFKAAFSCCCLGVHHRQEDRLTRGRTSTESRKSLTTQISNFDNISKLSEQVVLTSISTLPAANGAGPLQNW
The assay can be described thus: Intracellular Ca2+ mobilization assay (FLIPR), antagonism of orexin-A at EC80. Format: cell-based. The note with it: CHO(dHFr-) cells stably expressing hOX2; orexin-A at EC80 as agonist; antagonist applied 25 min before; Kb=IC50/(1+[A]/EC50); read-out: Kb (μM) OX2R (human). The procedure: Intracellular Ca^2+ Mobilization Assay
The Chinese Hamster Ovary (dHFr-) mutant cell line stably expressing human orexin-1 (hOX1) or human orexin-2 (hOX2) receptors were maintained in Dulbecco's Modified Eagle Medium (1×) with GlutaMax™1, 4500 mg/L D-Glucose and Sodium Pyruvate (Catalog No. 31966-021, Invitrogen, Carlsbad, Calif.), 5% dialyzed fetal calf serum (Catalog No. 26400-044), 100 μg/ml penicillin and 100 μg/ml streptomycin. The cells were seeded at 5×10^4 cells/well in the poly-D-lysine treated, 96-well, black/clear-bottomed plates (Catalog No. BD356640, BD Biosciences, Palo Alto, Calif.). 24 h later, the cells were loaded for 1 h at 37° C. with 4 μM Flou-4 acetoxymethyl ester (Catalog No. F-14202, Molecular Probes, Eugene, Oreg.) in FLIPR buffer (1×HBSS, 20 mM HEPES, 2.5 mM Probenecid). Hanks' Balanced Salt Solution (HBSS) (10×) (catalog No. 14065-049) and HEPES (1M) (catalog No. 15630-056) were purchased from Invitrogen, Carlsbad, Calif. Probenecid (250 mM) (catalog No. P8761) was from Sigma, Buchs, Switzerland. The cells were washed five times with FLIPR buffer to remove excess dye and intracellular calcium mobilization, [Ca^2+]i were measured using a Fluorometric Imaging Plate Reader (FLIPR-96, Molecular Devices, Menlo Park, Calif.) as described previously (Malherbe et al., Mol. Pharmacol., 64, 823-832, 2003). Orexin A (catalog No. 1455, Toris Cookson Ltd, Bristol, UK) was used as agonist. Orexin A ([…] stock solution in DMSO) was diluted in FLIPR buffer+0.1% BSA. The EC50 and EC80 values of orexin-A were measured daily from standard agonist concentration-response curves in CHO(dHFr-)-OX1R and -OX2R cell lines. All compounds were dissolved in 100% DMSO. Inhibition curves were determined by addition of 11 concentrations (0.0001-10 μM) of inhibitory compounds and using EC80 value of orexin-A as agonist (a concentration which gave 80% of max agonist response, determined daily). The antagonists were applied 25 min (incubation at 37° C.) before the application of the agonist. Responses were measured as peak increase in fluorescence minus basal, normalized to the maximal stimulatory effect induced by EC80 value of orexin-A or orexin-B. Inhibition curves were fitted according to the Hill equation: y=100/(1+(x/IC50)^nH), where nH=slope factor using Excel-fit 4 software (Microsoft). Kb values were calculated according to the following equation Kb=IC50/(1+[A]/EC50) where A is the concentration of agonist added which is very close to agonist EC80 value, and IC50 and EC50 values were derived from the antagonist inhibition and orexin-A or B agonist curves, respectively.
In general terms: A change in cytosolic calcium serves as a functional read-out for many receptors and channels.
Turning to `Cc1ccc(C(F)(F)F)c(C(=O)N2CC[C@@H](CNc3cnc4cc(Cl)ccc4n3)C2)c1` [Example 28, {(S)-3-[(6-Chloro-quinoxalin-2-ylamino)-methyl]-pyrrolidin-1-yl}-(5-methyl-2-trifluoromethyl-phenyl)-methanone], the Kb turned out to be 0.331 µM.
`O=C(c1cnoc1-c1ccccc1)N1CC[C@@H](CNc2nc3ccc(Cl)cc3o2)C1` [Example 16, {(S)-3-[(6-Chloro-benzooxazol-2-ylamino)-methyl]-pyrrolidin-1-yl}-(5-phenyl-isoxazol-4-yl)-methanone]: the Kb was determined as 0.147 µM.
Take `O=C(c1ccccc1OC(F)(F)C(F)F)N1CC[C@@H](CNc2nc3ccc(Cl)cc3o2)C1` [Example 13, {(S)-3-[(6-Chloro-benzooxazol-2-ylamino)-methyl]-pyrrolidin-1-yl}-[2-(1,1,2,2-tetrafluoro-ethoxy)-phenyl]-methanone]: the antagonist dissociation constant (Kb) worked out at 0.149 µM.
Under `Cc1ccc(C(F)(F)F)c(C(=O)N2CC[C@@H](CNc3nc4ccc(Cl)cc4o3)C2)c1` [Example 14, {(S)-3-[(6-Chloro-benzooxazol-2-ylamino)-methyl]-pyrrolidin-1-yl}-(5-methyl-2-trifluoromethyl-phenyl)-methanone] stands 0.304 µM; under `Cc1ccc(C(F)(F)F)c(C(=O)N2CC[C@@H](CNc3nc4cccc(F)c4o3)C2)c1` [Example 21, {(S)-3-[(7-Fluoro-benzooxazol-2-ylamino)-methyl]-pyrrolidin-1-yl}-(5-methyl-2-trifluoromethyl-phenyl)-methanone], 0.396 µM.
Consider `COc1cccc(OC)c1C(=O)N1CCC(CNc2nc3ccc(Cl)cc3o2)C1` (stereo not shown) [Example 1, {3-[(6-Chloro-benzooxazol-2-ylamino)-methyl]-pyrrolidin-1-yl}-(2,6-dimethoxy-phenyl)-methanone], for which the antagonist dissociation constant (Kb) is 0.0292 µM.
On to `Cc1onc(-c2ccccc2)c1C(=O)N1CC[C@@H](CNc2nc3ccc(Cl)cc3o2)C1` [Example 15, {(S)-3-[(6-Chloro-benzooxazol-2-ylamino)-methyl]-pyrrolidin-1-yl}-(5-methyl-3-phenyl-isoxazol-4-yl)-methanone], for which the Kb is 0.0819 µM.
On to `Cc1onc(-c2ccccc2)c1C(=O)N1CC[C@@H](CNc2nc3cccc(F)c3o2)C1` [Example 22, {(S)-3-[(7-Fluoro-benzooxazol-2-ylamino)-methyl]-pyrrolidin-1-yl}-(5-methyl-3-phenyl-isoxazol-4-yl)-methanone], for which the Kb turned out to be 0.0566 µM.
`O=C(c1ccccc1C(F)(F)F)N1CC[C@@H](CNc2nc3ccc(Cl)cc3o2)C1` [Example 11, {(S)-3-[(6-Chloro-benzooxazol-2-ylamino)-methyl]-pyrrolidin-1-yl}-(2-trifluoromethyl-phenyl)-methanone]: the Kb amounted to 0.726 µM.
On to `O=C(c1ccccc1OC(F)(F)F)N1CC[C@@H](CNc2nc3ccc(Cl)cc3o2)C1` [Example 12, {(S)-3-[(6-Chloro-benzooxazol-2-ylamino)-methyl]-pyrrolidin-1-yl}-(2-trifluoromethoxy-phenyl)-methanone], for which the antagonist dissociation constant (Kb) amounted to 0.214 µM.
For the molecule `O=C(c1cnoc1-c1ccccc1)N1CC[C@@H](CNc2cnc3cc(Cl)ccc3n2)C1` [Example 30, {(S)-3-[(6-Chloro-quinoxalin-2-ylamino)-methyl]-pyrrolidin-1-yl}-(5-phenyl-isoxazol-4-yl)-methanone], the antagonist dissociation constant (Kb) was determined as 0.34 µM.
Take `O=C(c1ccccc1OC(F)(F)C(F)F)N1CC[C@@H](CNc2cnc3cc(Cl)ccc3n2)C1` [Example 27, {(S)-3-[(6-Chloro-quinoxalin-2-ylamino)-methyl]-pyrrolidin-1-yl}-[2-(1,1,2,2-tetrafluoro-ethoxy)-phenyl]-methanone]: the antagonist equilibrium constant (Kb) came out at 0.0839 µM.
For `O=C(c1ccccc1C(F)(F)F)N1CC[C@@H](CNc2nc3ccc(F)cc3s2)C1` [Example 3, {(S)-3-[(6-Fluoro-benzothiazol-2-ylamino)-methyl]-pyrrolidin-1-yl}-(2-trifluoromethyl-phenyl)-methanone], the antagonist dissociation constant (Kb) worked out at 0.207 µM.
For the molecule `O=C(c1ccccc1OC(F)(F)F)N1CC[C@@H](CNc2nc3cccc(F)c3o2)C1` [Example 19, {(S)-3-[(7-Fluoro-benzooxazol-2-ylamino)-methyl]-pyrrolidin-1-yl}-(2-trifluoromethoxy-phenyl)-methanone], the Kb worked out at 0.69 µM.
The same measure for `Cc1ccc(Cl)c(C(=O)N2CC[C@@H](CNc3nc4cccc(F)c4o3)C2)c1` [Example 24, (2-Chloro-5-methyl-phenyl)-{(S)-3-[(7-fluoro-benzooxazol-2-ylamino)-methyl]-pyrrolidin-1-yl}-methanone]: 0.754 µM; for `O=C(c1ccccc1OC(F)(F)C(F)F)N1CC[C@@H](CNc2nc3ccc(F)cc3s2)C1` [Example 5, {(S)-3-[(6-Fluoro-benzothiazol-2-ylamino)-methyl]-pyrrolidin-1-yl}-[2-(1,1,2,2-tetrafluoro-ethoxy)-phenyl]-methanone]: 0.0318 µM.
As for `Cc1ccc(Cl)c(C(=O)N2CC[C@@H](CNc3cnc4cc(Cl)ccc4n3)C2)c1` [Example 31, (2-Chloro-5-methyl-phenyl)-{(S)-3-[(6-chloro-quinoxalin-2-ylamino)-methyl]-pyrrolidin-1-yl}-methanone], the Kb amounted to 0.539 µM.
As for `Cc1onc(-c2ccccc2)c1C(=O)N1CC[C@@H](CNc2nc3ccc(F)cc3s2)C1` [Example 7, {(S)-3-[(6-Fluoro-benzothiazol-2-ylamino)-methyl]-pyrrolidin-1-yl}-(5-methyl-3-phenyl-isoxazol-4-yl)-methanone], the Kb was 0.0623 µM.
Regarding `O=C(c1ccccc1OC(F)(F)F)N1CC[C@@H](CNc2nc3ccc(F)cc3s2)C1` [Example 4, {(S)-3-[(6-Fluoro-benzothiazol-2-ylamino)-methyl]-pyrrolidin-1-yl}-(2-trifluoromethoxy-phenyl)-methanone], the Kb came to 0.129 µM.
Regarding `Cc1ccc(Cl)c(C(=O)N2CC[C@@H](CNc3nc4ccc(Cl)cc4o3)C2)c1` [Example 17, {(S)-3-[(6-Chloro-benzooxazol-2-ylamino)-methyl]-pyrrolidin-1-yl}-(2-chloro-5-methyl-phenyl)-methanone], the antagonist equilibrium constant (Kb) amounted to 0.565 µM.
Under `Cc1ccc(C(F)(F)F)c(C(=O)N2CC[C@@H](CNc3nc4ccc(F)cc4s3)C2)c1` [Example 6, {(S)-3-[(6-Fluoro-benzothiazol-2-ylamino)-methyl]-pyrrolidin-1-yl}-(5-methyl-2-trifluoromethyl-phenyl)-methanone] stands 0.115 µM; under `COc1cccc(OC)c1C(=O)N1CC[C@@H](CNc2nc3ccc(Cl)cc3o2)C1` [Example 2, {(S)-3-[(6-Chloro-benzooxazol-2-ylamino)-methyl]-pyrrolidin-1-yl}-(2,6-dimethoxy-phenyl)-methanone], 0.0573 µM; under `O=C(c1ccccc1OC(F)(F)F)N1CC[C@@H](CNc2cnc3cc(Cl)ccc3n2)C1` [Example 26, {(S)-3-[(6-Chloro-quinoxalin-2-ylamino)-methyl]-pyrrolidin-1-yl}-(2-trifluoromethoxy-phenyl)-methanone], 0.178 µM.
With `Cc1ccc(Cl)c(C(=O)N2CC[C@@H](CNc3nc4ccc(F)cc4s3)C2)c1` [Example 9, (2-Chloro-5-methyl-phenyl)-{(S)-3-[(6-fluoro-benzothiazol-2-ylamino)-methyl]-pyrrolidin-1-yl}-methanone], the Kb came out at 0.337 µM.
In the case of `O=C(c1ccccc1OC(F)(F)C(F)F)N1CC[C@@H](CNc2nc3cccc(F)c3o2)C1` [Example 20, {(S)-3-[(7-Fluoro-benzooxazol-2-ylamino)-methyl]-pyrrolidin-1-yl}-[2-(1,1,2,2-tetrafluoro-ethoxy)-phenyl]-methanone], the antagonist dissociation constant (Kb) is 0.0772 µM.
